Assay results taken from patent US9170253B2, “Method and device for measuring multiple physiological properties of cells” (Seahorse Bioscience, priority 2003, dated 2015).

Legend:
CHO-M3 cells = assay: Effect of carbachol on O2 consumption, CO2 production and extracellular acidification rates of CHO-M3 cells (stop flow cycles); format: cell-based, Chinese hamster
Source text: Chinese hamster ovary (CHO) cells were transfected to over-express the muscarinic receptor subtype m3. The prototype device described in Example 1 was then used to monitor O2 consumption, CO2 production, and extracellular acidification rates, following treatment with the well-known, general acetylcholine receptor agonist, Carbachol.
Materials and Methods: Cell culture reagents were obtained from Gibco BRL (Grand Island, N.Y.). Carbachol was purchased from Sigma Chemical Co. (St. Louis, Mo.). Bicarbonate-free DMEM medium was obtained from Specialty Media (Phillipsburg, N.J.). Polycarbonate membrane snapwells (12 mm diameter, 3 μm pore size) were obtained from Corning (Corning, N.Y.). CHO cells expressing m3-muscarinic receptors (CHO-M3 cells) were obtained from the American Type Tissue Culture (ATCC; Manassas, Va.). Cells were cultured in Ham's F-12 medium supplemented with 10% fetal bovine serum (Hyclone), 1% GlutaMax and 0.1% Gentamicin and were maintained in a 5% CO2 incubator. Cells were subcultured when they reached 80% confluency. CHO-M3 cells were seeded at a density of 2×10^5 onto a snapwell 24 hours prior to use. Immediately prior to testing, cells on snapwells were switched to bicarbonate-free DMEM medium combined with 3.7 g/l NaCl to maintain osmolarity (medium pH 7.4-7.5).
Protocol Description: Probes were calibrated immediately prior to testing. The bottom of the test vessel was filled with bicarbonate-free medium. The snapwell was removed from a 5% CO2 incubator, and the regular growth medium (Ham's F-12) was replaced with bicarbonate-free DMEM medium. Thereafter, the snapwell was placed into the test vessel. Bicarbonate-free medium was pipetted onto the top of the snapwell, and the cover piece of the test vessel was placed gently on top of the snapwell and screwed into place, compressing the assembly. The probe software was started, and the pH, CO2 and O2 analytes were measured over the next 3.5 hours. Following the initial 1.5 hours of perfusion at a rate of 78 μl/min, a series of stop flow (10 minutes each) and medium re-perfusion (10 minutes each, 78 μl/min) cycles were started. During the last 2 minutes of medium re-perfusion cycle number 5, 100 μM carbachol was perfused across the snapwell. During re-perfusion number 6, bicarbonate-free DMEM medium was once again perfused across the snapwell. A rate of change for the analytes was calculated during each stop flow cycle.
The first four series of perfusion/stop flow cycles were done to establish a noise band on the three analytes prior to carbachol treatment during perfusion number 5. Bicarbonate-free medium re-perfusion during per perfusion number 6 and the rates calculated during stop flow number 6 were to assess potential continuing post-carbachol treatment effects on analytes' rates. Resulting data are shown below in Table 6 and in FIG. 11.

C2C12 Myoblasts [1] = assay: Effect of 2,4 DNP on O2, CO2 and pH flux rates of C2C12 myoblasts (prototype enclosed sample chamber); format: cell-based, murine; conditions: for CO2 Rate / O2 Rate / pH Rate: 20 minute measurement
Source text: (§1) The device included a cylindrical vessel, fabricated from polycarbonate material, and designed to receive a 12 mm diameter, polycarbonate membrane assembly (Corning Snapwell™ P/N 3802) with a pore size of approximately 3 μm. A cylindrical polycarbonate cover could be temporarily inserted into the vessel to form a smaller sample chamber, approximately 1.5 mm high, with a volume of about 160 microliter (μl). A series of bores around the perimeter of the vessel allowed the insertion of three 500 μm diameter optical fibers. The distal tip of each optical fiber was coated with a fluorescent sensing material to form a biosensor.
(§2) The three biosensors were designed to measure the partial pressures of O2 and CO2, and the pH of the media contained within the vessel. One fiber tip was coated with a matrix of Ruthenium dyes, encapsulated in oxygen permeable silicone rubber, to provide a readout of dissolved oxygen concentration. A second fiber tip was coated with a complex of Fluoroscene dye encapsulated in silicone rubber, to provide a readout of H^+ ion concentration (pH). A third biosensor was fabricated by using a CO2 permeable membrane to create a small reservoir of NaHCO3 surrounding a HydroxyPyrene Trisodium Salt (HPTS) pH sensitive dye. A change in CO2 concentration in the cell media would then cause a change in pH of this encapsulated reagent resulting in a measurable change in the fluorescent properties of the pH sensitive dye, and this change was calibrated to provide quantitative CO2 concentration data.
(§3) To determine the extracellular flux rates of O2 and CO2, the rates of change of partial pressures were divided by volume of each analytes available in the media (moles) to result in a value expressed in nmol/minute. The rate of acidification was expressed in mpH units/min (multiplied by 20 for scaling on the chart), but can easily be shown as protons per minute by calculating the number of available […] in the media buffer within the known sample volume.
In this experiment, C2C12 myoblasts were seeded on 12 mm diameter polycarbonate membranes and incubated for 12 hours. Wells were then removed from the incubator, inspected visually, and placed into the measurement device. 160 μl of NaHCO3-free DMEM medium was then added, and the device was assembled to form an enclosed sample chamber.
(§4) The dissolved concentrations of O2 and CO2, and the pH in the media were then measured every 5 seconds for a period of 20 minutes in order to determine a control baseline for each analyte flux. Once the baseline was established, a sequence of experiments were performed where varying doses of 2,4 DNP (obtained from Sigma, St. Louis Mo.) were added to the cell media and a 20 minute measurement of analyte flux rates was performed. A control experiment was also performed using the highest dose of 2,4 DNP, but without cells.

C2C12 Myoblasts [2] = assay: Effect of Rotenone on O2, CO2 and pH flux rates of C2C12 myoblasts (prototype enclosed sample chamber); format: cell-based, murine; design: key to O2 Rate / CO2 Rate: flux rate in nmol/minute; conditions: for CO2 Rate / O2 Rate / pH Rate: 20 minute measurement
Source text: as §1, §2, §3
Rotenone is known to inhibit cellular respiration by blocking NADH dehydrogenase in the respiratory chain. C2C12 Myoblasts were used to show this effect. 1.5×10^5 C2C12 myoblasts were seeded on membranes, incubated and placed in the measurement system along with 150 μl NaHCO3-free DMEM medium of as described in Example 3.
as §4, with “Rotenone” for “2,4 DNP”, “Rotenone,” for “2,4 DNP,”

[3] = Stop Flow 5, after 2-minute exposure to 100 μM carbachol
[4] = Stop Flow 6, post-carbachol, after re-perfusion with bicarbonate-free medium
[5] = Rotenone dose 25 (unit not given)
[6] = Rotenone dose 50 (unit not given)
[7] = Rotenone dose 100 (unit not given)
[8] = Rotenone dose 200 (unit not given)

C[N+](C)(C)CCOC(N)=O [carbachol, Carbachol]
CO2 rate versus baseline (CHO-M3 cells; 2-minute exposure to carbachol): increases above baseline levels
O2 rate versus baseline (CHO-M3 cells; 2-minute exposure to carbachol): increases above baseline levels
change in pH rate versus average baseline (CHO-M3 cells; 2-minute exposure to carbachol, 0.01 PHU/min baseline): doubling
CO2 Rate (CHO-M3 cells; [3]): 0.20 nmol/min
O2/CO2 Ratio (CHO-M3 cells; [3]): 1.99
O2/pH Ratio (CHO-M3 cells; [3]): 0.26
O2 Rate (CHO-M3 cells; [3]): 0.40 nmol/min
pH Rate (CHO-M3 cells; [3]): 0.02 PHU/min
CO2 Rate (CHO-M3 cells; [4]): 0.10 nmol/min
O2/CO2 Ratio (CHO-M3 cells; [4]): 3.34
O2/pH Ratio (CHO-M3 cells; [4]): 0.29
O2 Rate (CHO-M3 cells; [4]): 0.33 nmol/min
pH Rate (CHO-M3 cells; [4]): 0.01 PHU/min
Post-treatment rates versus pre-treatment values (CHO-M3 cells; stop flow period number 6): essentially returned to pre-treatment values

O=[N+]([O-])c1ccc(O)c([N+](=O)[O-])c1 [2,4 DNP]
CO2/O2 (C2C12 Myoblasts [1]; 2,4 DNP dose 10 μm): 2.18
O2/pH (C2C12 Myoblasts [1]; 2,4 DNP dose 10 μm): 0.46
CO2 Rate (C2C12 Myoblasts [1]; 2,4 DNP dose 10 μm): 2.78 nM/min
O2 Rate (C2C12 Myoblasts [1]; 2,4 DNP dose 10 μm): 1.26 nM/min
pH Rate (C2C12 Myoblasts [1]; 2,4 DNP dose 10 μm): 0.028 pH/min
CO2/O2 (C2C12 Myoblasts [1]; 2,4 DNP dose 50 μm): 2.13
O2/pH (C2C12 Myoblasts [1]; 2,4 DNP dose 50 μm): 0.64
CO2 Rate (C2C12 Myoblasts [1]; 2,4 DNP dose 50 μm): 4.24 nM/min
O2 Rate (C2C12 Myoblasts [1]; 2,4 DNP dose 50 μm): 1.99 nM/min
pH Rate (C2C12 Myoblasts [1]; 2,4 DNP dose 50 μm): 0.031 pH/min
CO2/O2 (C2C12 Myoblasts [1]; 2,4 DNP dose 100 μm): 2.00
O2/pH (C2C12 Myoblasts [1]; 2,4 DNP dose 100 μm): 0.73
CO2 Rate (C2C12 Myoblasts [1]; 2,4 DNP dose 100 μm): 4.59 nM/min
O2 Rate (C2C12 Myoblasts [1]; 2,4 DNP dose 100 μm): 2.30 nM/min
pH Rate (C2C12 Myoblasts [1]; 2,4 DNP dose 100 μm): 0.032 pH/min
O2 consumption rates (effect of treatment) (C2C12 Myoblasts [1]; over doses of Table 3): dose-dependent increase
extracellular acidification (effect of treatment) (C2C12 Myoblasts [1]; over doses of Table 3): little effect

C=C(C)[C@H]1Cc2c(ccc3c2O[C@@H]2COc4cc(OC)c(OC)cc4[C@@H]2C3=O)O1 [Rotenone]
CO2/O2 (C2C12 Myoblasts [2]; [5]): 4.00
O2/pH (C2C12 Myoblasts [2]; [5]): 0.17
CO2 Rate (C2C12 Myoblasts [2]; [5]): 1.76
O2 Rate (C2C12 Myoblasts [2]; [5]): 0.44
pH Rate (C2C12 Myoblasts [2]; [5]): 0.026
CO2/O2 (C2C12 Myoblasts [2]; [6]): 8.02
O2/pH (C2C12 Myoblasts [2]; [6]): 0.08
CO2 Rate (C2C12 Myoblasts [2]; [6]): 2.08
O2 Rate (C2C12 Myoblasts [2]; [6]): 0.26
pH Rate (C2C12 Myoblasts [2]; [6]): 0.031
CO2/O2 (C2C12 Myoblasts [2]; [7]): 12.18
O2/pH (C2C12 Myoblasts [2]; [7]): 0.09
CO2 Rate (C2C12 Myoblasts [2]; [7]): 2.34
O2 Rate (C2C12 Myoblasts [2]; [7]): 0.19
pH Rate (C2C12 Myoblasts [2]; [7]): 0.023
CO2/O2 (C2C12 Myoblasts [2]; [8]): 69.84
O2/pH (C2C12 Myoblasts [2]; [8]): 0.02
CO2 Rate (C2C12 Myoblasts [2]; [8]): 2.24
O2 Rate (C2C12 Myoblasts [2]; [8]): 0.04
pH Rate (C2C12 Myoblasts [2]; [8]): 0.027
O2 consumption rate (effect of treatment) (C2C12 Myoblasts [2]; over doses of Table 4): dose-dependent decrease
